Laboratory results reported in patent US20210205195A1, “PRESERVED COMPOSITIONS” (Conopco, Inc., d/b/a UNILEVER, priority 2018, published 2021).

Key:
[1] = tested on: Pseudomonas aeruginosa, Burkholderia cepacia, Strenotrophomonas sp; assay: Modified Ph. Eur. 5.1.3 microbial challenge test in hair conditioner, Pool 1 (Gram negative non-fermenters); type: cell-based
Experimental: (§1) Itaconic acid, lactic acid and citric acid were purchased from Sigma-Aldrich. Six samples of unpreserved conditioner were dosed with 0.5% and 1% (w/w) itaconic acid, citric acid and lactic acid separately. An unpreserved sample was kept as a control. Each dosed product was adjusted to pH 5 using 50% sodium hydroxide (Sigma-Aldrich). A modified challenge test to that of the European Pharmacopoeia (Ph. Eur. Or EP) 5.1.3 criteria was performed on a subsample of unpreserved and each dosed product. The microbial challenge pools were added to each sample container at a ratio of 1:100. The final concentration of inoculum in the product should be 5×10^6 CFU/G of test product. Each product is mixed with a sterile spatula to ensure a homogenous distribution of the inocula throughout the product. [table] Both the inoculum level and the level of microorganism within each sample was quantified using a Total Viable Count (TVC) pour plate method at 7, 14, 21 and 28 days. A 1:10 dilution was made with a subsample of each product, performed separately in Peptone (0.1%)/tween 80 (2%) neutralising agent. A 1:10 and 1:100 dilution of each subsample was performed and pour plates produced at each dilution using tryptone soya agar. Plates were incubated at 28° C. for 48 hours and then examined for growth. Visible colonies were counted with the aid of a Quebec Colony Counter and recorded for analysis against the challenge test criteria. During the removal of a subsample of product for TVC, a reinoculation is performed at 7 and 14 days, reintroducing 5×10^6 CFU/G of bacteria before mixing using a sterile spatula to homogenise the reinoculation. [table]

[2] = tested on: Enterobacter cloacae, Klebsiella sp; assay: Modified Ph. Eur. 5.1.3 microbial challenge test in hair conditioner, Pool 2 (Gram negative fermenters); type: cell-based
Experimental: as §1

[3] = 0.5% (w/w) in conditioner, pH 5, Pool 1, 7 days
[4] = 0.5% (w/w) in conditioner, pH 5, Pool 1, 14 days
[5] = 0.5% (w/w) in conditioner, pH 5, Pool 1, 21 days
[6] = 0.5% (w/w) in conditioner, pH 5, Pool 1, 28 days
[7] = 1% (w/w) in conditioner, pH 5, Pool 1, 7 days
[8] = 1% (w/w) in conditioner, pH 5, Pool 1, 14 days
[9] = 1% (w/w) in conditioner, pH 5, Pool 1, 21 days
[10] = 1% (w/w) in conditioner, pH 5, Pool 1, 28 days
[11] = 0.5% (w/w) in conditioner, pH 5, Pool 2, 7 days
[12] = 0.5% (w/w) in conditioner, pH 5, Pool 2, 14 days
[13] = 0.5% (w/w) in conditioner, pH 5, Pool 2, 21 days
[14] = 0.5% (w/w) in conditioner, pH 5, Pool 2, 28 days
[15] = 1% (w/w) in conditioner, pH 5, Pool 2, 7 days
[16] = 1% (w/w) in conditioner, pH 5, Pool 2, 14 days
[17] = 1% (w/w) in conditioner, pH 5, Pool 2, 21 days
[18] = 1% (w/w) in conditioner, pH 5, Pool 2, 28 days

Compound | Microbial Log reduction [1, 3] | Microbial Log reduction [1, 4] | Microbial Log reduction [1, 5] | Microbial Log reduction [1, 6] | Microbial Log reduction [1, 7] | Microbial Log reduction [1, 8] | Microbial Log reduction [1, 9] | Microbial Log reduction [1, 10] | Microbial Log reduction [2, 11] | Microbial Log reduction [2, 12] | Microbial Log reduction [2, 13] | Microbial Log reduction [2, 14] | Microbial Log reduction [2, 15] | Microbial Log reduction [2, 16] | Microbial Log reduction [2, 17] | Microbial Log reduction [2, 18]
O=C(O)CC(O)(CC(=O)O)C(=O)O [Citric acid, citric acid] | >5.85 | >5.89 | >5.79 | >5.79 | >5.85 | >5.89 | >5.79 | >5.79 | 3.20 | 2.28 | <2.82 | 2.72 | 4.67 | 2.86 | <2.82 | 3.69
C=C(CC(=O)O)C(=O)O [Itaconic acid] | >5.85 | >5.89 | >5.79 | >5.79 | >5.85 | >5.89 | >5.79 | >5.79 | >5.72 | >5.61 | >5.82 | >5.82 | >5.72 | >5.61 | >5.82 | >5.82
CC(O)C(=O)O (stereo not drawn) [Lactic acid, lactic acid] | >5.85 | >5.89 | >5.79 | >5.79 | >5.85 | >5.89 | >5.79 | >5.79 | 3.73 | 3.70 | <2.82 | <2.82 | 3.69 | 3.58 | 4.02 | 4.62
